From patent US7579356B2, “Thia-tetraazaacenaphthylene kinase inhibitors” (Janssen Pharmaceutica NV, priority 2005, dated 2009) come the findings set out here.

Structures are written as SMILES.

One assay addresses T1, EGFR (Homo sapiens, UniProt P00533).
T1 construct: The intracellular portion of EGFR started at nucleotide 2189 (corresponding to amino acid 667) and ended at the termination codon; made in house; host or cells: Sf9 insect cells (baculovirus)
Description: EGFR Kinase Assay. It is filed as biochemical. The following applies: for IC50: GST-EGFR, ATP 5 μM. An outline of the steps: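 Potency came from triplicate 16-point half-log titrations starting at 200 uM, with IC50 fitted from % inhibition against log concentration, or % inhibition at 2 μM otherwise. Reaction: Sf9-made GST–EGFR cytoplasmic region (aa 667 onward), biotin-polyGluTyr, 5 μM ATP with 33P tracer, pH 8.0 Tris/Mg/vanadate/DTT, 30 °C for 1 h; captured on streptavidin Flashplates and counted.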

The target in another assay is T2, HER-2 (Homo sapiens, UniProt P04626).
T2 construct: His6 with thrombin site (N); purchased Proqinase (Freiburg, Germany)
Nature of the assay: HER-2 Kinase Assay. It is filed as biochemical. The following applies: for inhibition at 1 µM: test concentration of 1 μM; for IC50: value in parentheses. An outline of the steps: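 Read-out was scintillation counting of 33P incorporated into biotinylated polyGluTyr captured on streptavidin plates. Reactions ran 1 h at 30 °C with GST-fused HER-2 residues 679–1255, 1 μM ATP, Mn2+ and Mg2+ at pH 7.5; data given as percent inhibition at 1 μM, with IC50 where determined.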

For the next assay, the system named is BT474 breast carcinoma. Nature of the assay: Cell Proliferation Inhibition Assay, BT474 (14C-thymidine). It is filed as cell-based. To be noted: Homo sapiens, BT-474, C14 method. An excerpt:
(§1) Cell Proliferation Inhibition Assay
(§2) The ability of a test compound to inhibit unregulated cell proliferation may be determined by measuring incorporation of ^14C-labelled thymidine into newly synthesized DNA within cell lines derived from carcinomas originating from several tissues. Accordingly, the effect of a test compound on proliferation of cells with a variety of phenotypes may be determined.
(§3) Carcinoma cell lines used include the HeLa cervical adenocarcinoma from the American Type Culture Collection (ATCC Cat. #CCL2), A375 malignant melanoma (ATCC Cat. #CRL-1619), HCT-116 colon carcinoma (ATCC Cat. #CCL-247), SKBR3 breast carcinoma (ATCC Cat. #HTB-30) and BT474 breast carcinoma (ATCC Cat. #HTB-20).
(§4) The carcinoma cells were trypsinized and counted. The cells (3000-8000 count) were added to each well of a 96-well CytoStar tissue culture treated scintillating microplate (Amersham #RPNQ0160) in complete medium (100 μL) and the plate was then incubated in complete medium for 24 hrs at 37° C. in an inert atmosphere containing 5% CO2.
(§5) Test compound (1 μL) in 100% DMSO was added to the plate test-wells with DMSO only added to control-wells. The plate was incubated in complete medium for a second 24 hr period at 37° C. in an atmosphere containing 5% CO2.
(§6) An aliquot of a solution of Methyl ^14C-thymidine (56 mC/mmol) (NEN #NEC568 or AMersham #CFA532) and complete medium (20 uL to provide 0.2 μCl/well) was then added to each well and the plate was incubated for a third 24 hr period at 37° C. in an atmosphere containing 5% CO2.
(§7) The plate contents were then discarded, the plate washed twice with PBS (200 μL) and then PBS (200 μL) was added to each well. The plate was sealed and the degree of methyl ^14C-thymidine incorporation was quantified on a Packard Top Count.
(§8) Cell proliferation of the Hela cell line was measured using the ATP-Lite method as described in the ATP Lite Kit (Perkin-Elmer Kit Number 6106941) or the C^14 method as described above. Cell proliferation of the other cell lines was measured using the C^14 method.

The subject of assay [1] is HeLa cervical adenocarcinoma. Nature of the assay: Cell Proliferation Inhibition Assay, Hela (ATP Lite). It is filed as cell-based. The following applies: Homo sapiens, ATP-Lite method.
Excerpt: as §1, §2, §3, §4, §5, §8

The next assay deals with SKBR3 breast carcinoma. Nature of the assay: Cell Proliferation Inhibition Assay, SKBR3 (14C-thymidine). In kind it is cell-based. The following applies: Homo sapiens, SK-BR-3, C14 method.
Excerpt: as §1, §2, §3, §4, §5, §6, §7, §8

The target in another assay is T3, HER-4 (Homo sapiens, UniProt Q15303).
T3 construct: His6 with thrombin site (N); purchased Proqinase (Freiburg, Germany)
Nature of the assay: HER-4 Kinase Assay. It is filed as biochemical. The protocol:
The HER-4 kinase used was purified at Proqinase (Freiburg, Germany) from a construct that consisted of a fusion of GST (Glutathione-S-Transferase), HIS6-Thrombin and the nucleotides encoding amino acids 676 to 1307 of HER-4 (Accession NM 005235).
A mixture of a 10× kinase reaction buffer (600 mM Hepes at pH 7.5, 30 mM Magnesium Chloride, 0.03 mM Sodium Vanadate and 500 μg/mL PEG 20,000), DTT (1.2 mM final from a 10 mM) stock), ATP (1 μM from a 10 mM stock), biotinylated polyGluTyr (1.5 ng/μL final from stock of 1 μg/μL) prepared by Upstate Biotechnologies, Lake Placid, N.Y.), Manganese Chloride (3 mM final from a 1 M stock), γ-^33P-ATP (10 μCl/mL stock) and water (70 μL/well) was added to each well of a Streptavidin Flashplate (Cat. # SMP103, NEN, Boston, Mass.).
Test compound stock (1 μL) was added to the appropriate wells. Diluted GST HER-4 kinase (6.7 ng/μL diluted into 50 mM Tris-HCl at pH 8.0 and 0.1% bovine serum albumin) (30 μL) was added (total volume of 200 ng/well) to initiate the reactions.
The reaction plates were incubated at 30° C. for 1 hr. The reaction was terminated by aspirating the reaction mixture from the plate wells and washing the wells three times with a 1×PBS stop buffer (300 μL) and 100 mM EDTA. After the final wash, the same stop buffer (200 μL) was again added to the wells. The plates were then sealed and read on the TopCount scintillation counter.
For a series of test concentrations, the IC50 was derived by graphing percent inhibition against the log of the concentrations tested for a given compound.

For assay [2], the system named is Human epidermoid A431 carcinoma. Nature of the assay: In Vivo Models - Inhibition of Tumor Growth, A431. The following applies: 100 mg/kg, oral daily for 30 days, athymic mice. The protocol: (§9) In Vivo Models—Inhibition of Tumor Growth
(§10) The ability of test compounds to inhibit unregulated growth of human tumor cells in vivo was evaluated by implanting human tumor cells into the hindflank of athymic mice, administering a test compound and then quantifying any change in tumor size.
(§11) Human epidermoid A431 carcinoma, N87 cells and BT474 cells were implanted subcutaneously into the hindflank of female athymic mice (Charles River) and allowed to grow for 6-10 days. After a measurable tumor was established (as determined by baseline caliper measurement), the animal was administered an oral dose of the test compound daily for a period of 30 days. Tumor size was measured every five days and the degree of inhibition was determined by comparing drug-treated animals to vehicle-treated animals.
(§12) Variations of this method are intended to include intraperitoneal injection or intravenous infusion as the route of administration and administration of the test compound either alone or in a combination therapy.
(§13) The inhibition of tumor growth values are shown in Table 8 at various test concentrations, as indicated. For compounds with multiple values at one test concentration, each value represents a separate assay result.

For another assay, the system named is N87 cells. Nature of the assay: In Vivo Models - Inhibition of Tumor Growth, N87. The following applies: Mus musculus, po, 720 h, 100 mg/kg, oral daily for 30 days, athymic mice; read-out: percent inhibition N87. The protocol: as §9, §10, §11, §12, §13

T2 sequence (P04626 679-1255): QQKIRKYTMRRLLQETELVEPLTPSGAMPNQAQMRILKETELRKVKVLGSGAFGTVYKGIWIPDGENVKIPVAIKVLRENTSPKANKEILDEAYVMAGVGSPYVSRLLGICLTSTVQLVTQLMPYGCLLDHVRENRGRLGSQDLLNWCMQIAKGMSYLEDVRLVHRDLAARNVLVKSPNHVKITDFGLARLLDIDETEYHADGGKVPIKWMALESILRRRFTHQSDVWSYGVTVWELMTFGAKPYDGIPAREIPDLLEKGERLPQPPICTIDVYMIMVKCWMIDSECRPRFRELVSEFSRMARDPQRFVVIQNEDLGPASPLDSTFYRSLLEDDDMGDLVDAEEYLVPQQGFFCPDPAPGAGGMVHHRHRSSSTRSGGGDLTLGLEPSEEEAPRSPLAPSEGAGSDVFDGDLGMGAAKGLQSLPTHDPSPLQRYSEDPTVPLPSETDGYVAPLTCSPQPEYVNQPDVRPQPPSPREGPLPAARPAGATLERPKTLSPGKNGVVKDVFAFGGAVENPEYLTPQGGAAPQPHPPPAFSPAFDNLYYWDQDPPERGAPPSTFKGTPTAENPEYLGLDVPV
T1 sequence (P00533 669-1210 limits assumed): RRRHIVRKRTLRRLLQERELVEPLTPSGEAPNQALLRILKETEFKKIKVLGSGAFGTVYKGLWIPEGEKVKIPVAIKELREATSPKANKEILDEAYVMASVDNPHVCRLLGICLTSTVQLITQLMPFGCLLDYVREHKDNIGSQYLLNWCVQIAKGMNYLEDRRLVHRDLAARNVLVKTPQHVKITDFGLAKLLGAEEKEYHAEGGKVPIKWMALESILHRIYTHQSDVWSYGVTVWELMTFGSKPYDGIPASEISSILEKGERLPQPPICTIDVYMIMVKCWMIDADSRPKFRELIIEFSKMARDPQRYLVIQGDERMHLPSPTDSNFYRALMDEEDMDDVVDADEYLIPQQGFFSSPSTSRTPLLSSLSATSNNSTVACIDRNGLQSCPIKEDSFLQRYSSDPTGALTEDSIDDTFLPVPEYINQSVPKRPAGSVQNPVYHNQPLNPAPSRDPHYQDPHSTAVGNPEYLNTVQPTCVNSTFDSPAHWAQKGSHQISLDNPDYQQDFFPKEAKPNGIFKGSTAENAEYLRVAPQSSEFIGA
T3 sequence (Q15303 676-1307): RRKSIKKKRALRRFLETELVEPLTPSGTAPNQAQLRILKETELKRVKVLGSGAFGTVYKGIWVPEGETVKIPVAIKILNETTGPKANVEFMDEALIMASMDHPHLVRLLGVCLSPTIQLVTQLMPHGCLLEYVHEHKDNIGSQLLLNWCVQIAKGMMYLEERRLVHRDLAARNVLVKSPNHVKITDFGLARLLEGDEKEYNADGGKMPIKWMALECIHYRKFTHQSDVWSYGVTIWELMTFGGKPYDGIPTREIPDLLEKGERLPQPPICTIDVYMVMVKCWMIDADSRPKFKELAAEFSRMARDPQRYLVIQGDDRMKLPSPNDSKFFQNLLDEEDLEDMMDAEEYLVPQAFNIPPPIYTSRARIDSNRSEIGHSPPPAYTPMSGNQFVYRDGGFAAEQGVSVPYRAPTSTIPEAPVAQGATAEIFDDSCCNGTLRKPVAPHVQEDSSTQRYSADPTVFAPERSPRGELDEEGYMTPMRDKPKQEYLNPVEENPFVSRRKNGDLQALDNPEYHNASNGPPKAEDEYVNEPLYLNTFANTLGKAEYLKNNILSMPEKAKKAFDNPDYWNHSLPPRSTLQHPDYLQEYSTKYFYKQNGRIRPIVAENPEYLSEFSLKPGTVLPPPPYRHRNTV

`O=C(Nc1ccc(CN2CCCCC2)cc1)c1sc2ncnc3c2c1NC(=O)N3c1ccc(F)c(Cl)c1` [Cpd 3, 5-(3-chloro-4-fluoro-phenyl)-4-oxo-4,5-dihydro-3H-1-thia-3,5,6,8-tetraaza-acenaphthylene-2-carboxylic acid (4-piperidin-1-ylmethyl-phenyl)-amide]: the IC50 (in general, the midpoint of a concentration-inhibition curve) stood at 9 nM against EGFR, 9.58 µM with BT474 breast carcinoma, 42.6 µM in assay [1] and 9.72 µM in the assay with SKBR3 breast carcinoma. Further, on HER-2, testing at 1 µM gave an inhibition of 59%.

Consider `COc1cc(NC(=O)c2sc3ncnc4c3c2NC(=O)N4c2cccc(Br)c2)ccc1OCCN1CCCCC1` [Cpd 63, 5-(3-bromo-phenyl)-4-oxo-4,5-dihydro-3H-1-thia-3,5,6,8-tetraaza-acenaphthylene-2-carboxylic acid [3-methoxy-4-(2-piperidin-1-yl-ethoxy)-phenyl]-amide], for which the IC50 against EGFR is 104 nM; in the assay with BT474 breast carcinoma, not below 10 µM; in assay [1], 59 µM; with SKBR3 breast carcinoma, 26.9 µM. At 1 µM the inhibition on HER-2 was 45%.

On to `COc1cc(NC(=O)c2sc3ncnc4c3c2NC(=O)N4c2ccc(Oc3ccccc3)cc2)ccc1CN1CCOCC1` [Cpd 176, 4-oxo-5-(4-phenoxy-phenyl)-4,5-dihydro-3H-1-thia-3,5,6,8-tetraaza-acenaphthylene-2-carboxylic acid (3-methoxy-4-morpholin-4-ylmethyl-phenyl)-amide], for which the figures for the IC50 against EGFR, on HER-2 and at HER-4 were 22 nM, 12 nM and 47 nM, respectively.

`O=C(Nc1ccc(CN2CCC(O)CC2)cc1)c1sc2ncnc3c2c1NC(=O)N3c1ccc(Oc2ccccc2)cc1` [Cpd 233, 4-oxo-5-(4-phenoxy-phenyl)-4,5-dihydro-3H-1-thia-3,5,6,8-tetraaza-acenaphthylene-2-carboxylic acid [4-(4-hydroxy-piperidin-1-ylmethyl)-phenyl]-amide]: the IC50 against EGFR was 17 nM; on HER-2 it was 9 nM; against HER-4, 9 nM. Further, in assay [2], the “percent inhibition A431” value is on record as 2.2%. Moreover, the inhibition in vivo at 100 mg/kg in the assay on N87 cells was 38.3%.

Turning to `O=C(Nc1ccc(CN2CCCC(F)C2)cc1)c1sc2ncnc3c2c1NC(=O)N3c1ccc(Oc2ccccc2)cc1` (centres unmarked) [Cpd 234, 4-oxo-5-(4-phenoxy-phenyl)-4,5-dihydro-3H-1-thia-3,5,6,8-tetraaza-acenaphthylene-2-carboxylic acid [4-(3-fluoro-piperidin-1-ylmethyl)-phenyl]-amide], the 50% inhibitory concentration (IC50) at EGFR was 52 nM; on HER-2, 34 nM; against HER-4, 59 nM.

In the case of `O=C(Nc1ccc(CN2CCOCC2)cc1)c1sc2ncnc3c2c1NC(=O)N3c1ccc(OCc2ccco2)c(Cl)c1` [Cpd 245, 5-[3-chloro-4-(furan-2-ylmethoxy)-phenyl]-4-oxo-4,5-dihydro-3H-1-thia-3,5,6,8-tetraaza-acenaphthylene-2-carboxylic acid (4-morpholin-4-ylmethyl-phenyl)-amide], the half-maximal inhibitory concentration (IC50) against EGFR came to 24 nM; on HER-2 it was 48 nM; against HER-4 it was 227 nM. Also, the inhibition in vivo at 100 mg/kg in the assay on N87 cells amounted to 48.7%.

With `O=C(Nc1ccc(CN2CCC(F)CC2)cc1)c1sc2ncnc3c2c1NC(=O)N3c1ccc(Oc2ccccc2)cc1` [Cpd 250, 4-oxo-5-(4-phenoxy-phenyl)-4,5-dihydro-3H-1-thia-3,5,6,8-tetraaza-acenaphthylene-2-carboxylic acid [4-(4-fluoro-piperidin-1-ylmethyl)-phenyl]-amide], the IC50 against EGFR was found to be 37 nM; on HER-2, 26 nM; at HER-4, 33 nM. Also, in the assay with N87 cells, the inhibition in vivo at 100 mg/kg amounted to 68.9%.

`NC1CCN(Cc2ccc(NC(=O)c3sc4ncnc5c4c3NC(=O)N5c3ccc(Oc4ccccc4)cc3)cc2)CC1` [Cpd 259, 4-oxo-5-(4-phenoxy-phenyl)-4,5-dihydro-3H-1-thia-3,5,6,8-tetraaza-acenaphthylene-2-carboxylic acid [4-(4-amino-piperidin-1-ylmethyl)-phenyl]-amide]: the IC50 stood at 21 nM at EGFR and 11 nM at HER-2. Besides, the inhibition in vivo at 100 mg/kg with N87 cells worked out at 46.8%.

With `O=C(Nc1ccc(CN2CCOCC2)c(O)c1)c1sc2ncnc3c2c1NC(=O)N3c1ccc(Oc2ccccc2)cc1` [Cpd 262, 4-oxo-5-(4-phenoxy-phenyl)-4,5-dihydro-3H-1-thia-3,5,6,8-tetraaza-acenaphthylene-2-carboxylic acid (3-hydroxy-4-morpholin-4-ylmethyl-phenyl)-amide], the IC50 against EGFR stood at 35 nM; at HER-2, 19 nM. Besides, the inhibition in vivo at 100 mg/kg in the assay with N87 cells turned out to be 70.5%.

As for `O=C(Nc1ccc(CN2CCC(F)(F)CC2)cc1)c1sc2ncnc3c2c1NC(=O)N3c1ccc(Oc2ccccc2)cc1` [Cpd 263, 4-oxo-5-(4-phenoxy-phenyl)-4,5-dihydro-3H-1-thia-3,5,6,8-tetraaza-acenaphthylene-2-carboxylic acid [4-(4,4-difluoro-piperidin-1-ylmethyl)-phenyl]-amide], the inhibition (usually the percentage by which the read-out fell short of the control) at 2 µM at EGFR (test concentration of 2 μM, compounds without an IC50, read-out: EGFR inhibition in percent) was found to be 83%. In addition, the IC50 on HER-2 was determined as 523 nM. The inhibition in vivo at 100 mg/kg with N87 cells is 18.1%.
